According to US20100075965A1, “PI3 KINASE INHIBITORS AND METHODS OF THEIR USE” (Novartis AG, priority 2006, published 2010):
Read-outs that look alike come from different tables or passages of the source.

Experiments:
PI3 kinase isoform beta = molecular target: T1, PI3 kinase isoform beta (Homo sapiens, UniProt P42338); test: PI3K scintillation proximity kinase assay, beta isoform; format: biochemical
T1 construct: made in house
Protocol: (§1) Activity of compounds in Table 4, expressed as Ki the dissociation constant for inhibition binding, were determined using the following test procedures.
(§2) Baculovirus expressing different fragments of PI3Kγ fused to GST have been previously described by Stoyanova, S., Bulgarelli-Leva, G., Kirsch, C., Hanck, T., Klinger, R., Wetzker, R., Wymann, M. P. (1997) Lipid- and protein kinase activities of G protein-coupled PI 3-kinase gamma: structure-activity analysis and interactions with wortmannin. Biochem. J., 324:489. Residues 38-1102 of human PI3Kγ are subcloned into the BamH1 and EcoR1 sites of the transfer vector pAcG2T (Pharmingen) to create a GST-P13Kγ lacking the first 37 residues of PI3Kγ. To express the recombinant protein, Sf9 (Spodoptera frugiperda 9) insect cells are routinely maintained at densities between 3×10^5 and 3×10^6 cells/ml in serum containing TNMFH medium (Sigma). Sf9 cells, at a density of 2×10^6 are infected with human GST-PI3γΔ34 baculovirus at a multiplicity of infection (m.o.i.) of 1 for 72 hours. The infected cells are harvested by centrifugation at 1400 g for 4 minutes at 4° C. and the cell pellets are frozen at −80° C. Both Sf9 and Sf21 cells work equally well. […] Cell lysate (supernatant) is added (usually as 50 ml lysate to 1 ml GST resin in 50 ml tubes) and gently rotated on a mixer at 4° C. for 2-3 hours. The unbound flow through sample is collected by centrifugation at 1000 g for 5 minutes at 4° C. using a DENLEY™ centrifuge. The 1 ml GST resin containing bound material is transferred to a 15 ml FALCON™ centrifuge tube for subsequent washing and elution steps. Firstly a series of 3 cycles of washings (mixing by gentle inversion) is performed with 15 ml ice cold wash Buffer A (50 mM Tris-HCl pH 7.5, 1% Triton X-100, 2 mM DTT) interspersed with centrifugation at 1000 g for 5 minutes at 4° C. A final single wash step is performed with 15 ml ice cold wash Buffer B (50 mM Tris-HCl pH 7.5, 2 mM DTT) and then centrifuged at 1000 g for 5 minutes at 4° C. The washed GST resin is finally eluted with 4 cycles of 1 ml ice cold elution buffer (50 mM Tris-HCl pH 7.5, 10 mM reduced glutathione, 2 mM DTT, 150 mM NaCl, 1 mM NaF, 50% ethylene glycol and protease inhibitors) interspersed with centrifugation at 1000 g for 5 minutes at 4° C. Samples are aliquoted and stored at −20° C. The isoforms in Table 4 were similarly purified.
(§3) An in vitro kinase assay was established that measures the transfer of the terminal phosphate of adenosine triphosphate to phosphatidylinositol. The kinase reaction is performed in a white 96 well microtitre plate as a Scintillation Proximity Assay. […] The plate is incubated at room temperature for 60 minutes and the reaction terminated by the adding 150 μl of WGA-bead stop solution (40 mM Tris, 200 mM NaCl, 2 mM EGTA, 1.3 mM ethylene diamine tetraacetic acid (EDTA), 2.6 μM ATP and 0.5 mg of Wheat Germ Agglutinin-SPA beads (Amersham Biosciences) to each well. The plate is sealed, incubated at room temperature for 60 minutes, centrifuged at 1200 rpm and then counted for 1 minute using a scintillation counter. Total activity is determined by adding 10 μl of 5% dimethylsulphoxide (DMSO) and non-specific activity is determined by adding 10 μl 50 mM EDTA in place of the test compound.

PI3 kinase isoform delta = molecular target: T2, PI3 kinase isoform delta (Homo sapiens, UniProt O00329); test: PI3K scintillation proximity kinase assay, delta isoform; format: biochemical
T2 construct: made in house
T2 sequence (O00329 1-1044): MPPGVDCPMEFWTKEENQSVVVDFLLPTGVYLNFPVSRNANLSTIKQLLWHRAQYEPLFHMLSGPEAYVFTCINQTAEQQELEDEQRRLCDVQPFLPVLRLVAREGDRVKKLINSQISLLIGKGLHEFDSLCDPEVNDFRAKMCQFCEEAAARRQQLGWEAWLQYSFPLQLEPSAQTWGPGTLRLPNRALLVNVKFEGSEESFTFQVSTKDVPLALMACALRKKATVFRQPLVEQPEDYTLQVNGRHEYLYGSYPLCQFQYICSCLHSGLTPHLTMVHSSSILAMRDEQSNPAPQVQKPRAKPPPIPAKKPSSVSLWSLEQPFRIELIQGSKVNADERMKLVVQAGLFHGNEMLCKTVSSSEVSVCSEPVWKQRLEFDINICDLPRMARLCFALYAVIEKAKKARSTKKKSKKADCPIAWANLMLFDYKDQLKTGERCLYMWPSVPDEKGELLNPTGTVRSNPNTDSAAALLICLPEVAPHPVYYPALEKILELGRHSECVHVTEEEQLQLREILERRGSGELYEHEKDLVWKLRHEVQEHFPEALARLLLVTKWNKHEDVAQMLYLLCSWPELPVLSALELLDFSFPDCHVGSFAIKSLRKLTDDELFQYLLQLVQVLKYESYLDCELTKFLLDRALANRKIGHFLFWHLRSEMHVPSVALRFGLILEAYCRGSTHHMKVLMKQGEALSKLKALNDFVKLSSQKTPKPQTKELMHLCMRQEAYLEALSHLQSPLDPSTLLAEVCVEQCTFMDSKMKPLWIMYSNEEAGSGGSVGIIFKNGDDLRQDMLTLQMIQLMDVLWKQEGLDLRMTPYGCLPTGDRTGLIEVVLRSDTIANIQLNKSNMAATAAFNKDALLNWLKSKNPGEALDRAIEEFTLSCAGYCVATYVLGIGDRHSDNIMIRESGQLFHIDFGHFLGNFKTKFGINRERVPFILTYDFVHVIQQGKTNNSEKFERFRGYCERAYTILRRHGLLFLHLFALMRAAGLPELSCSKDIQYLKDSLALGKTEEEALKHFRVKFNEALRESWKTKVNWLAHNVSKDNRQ
Protocol: as §1, §2, §3

PI3 kinase isoform alpha = molecular target: T3, PI3 kinase isoform alpha (Homo sapiens, UniProt P42336); test: PI3K scintillation proximity kinase assay, alpha isoform; format: biochemical
T3 construct: made in house
Protocol: as §1, §2, §3

human PI3Kγ (GST-p110γ) = molecular target: T4, human PI3Kγ (GST-p110γ) (Homo sapiens, UniProt P48736); test: PI3K scintillation proximity kinase assay, gamma isoform; format: biochemical; conditions: PI3 kinase isoform gamma
T4 construct: Residues 38-1102 of human PI3Kγ are subcloned into the BamH1 and EcoR1 sites of the transfer vector pAcG2T; made in house; host or cells: Sf9 (Spodoptera frugiperda) insect cells, baculovirus
Protocol: as §1, §2, §3

[1] = tested on: subcutaneous A2780 ovarian xenograft tumors; test: A2780 human ovarian xenograft model in nude mice; format: in vivo; conditions: 30 mg/kg daily p.o., day 6, p<0.001 vs vehicle (ANOVA)
Protocol: Female nude mice (6-8 weeks of age; Charles River) were implanted subcutaneously with A2780 (5×10^6 cells/mouse in 0.1 ml HBSS) cells into the right flank. […] Tumor volumes were measured (SE is the standard error of the mean).
Tumors from mice treated with vehicle were also harvested as controls.

[2] = tested on: pSer473-Akt in A2780 cells; test: pSer473 Akt assay to monitor PI3K pathway in A2780 cells (MSD); format: cell-based; conditions: Homo sapiens, A2780 cells
Method in brief: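 A2780 cells (15,000/well, adhered overnight) treated 1 h at 37 °C with compound, then lysed; pSer473-Akt and total Akt measured by MSD electrochemiluminescence. The pSer473/total Akt ratio gave percent inhibition versus DMSO, from which EC50 was derived.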

A2780 cells = test: Viability assay in A2780 (Cell Titer Glo); format: cell-based, human; conditions: Homo sapiens, A2780 cells, read-out: A2780 Cell prolif. EC50
Method in brief: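 A2780 cells (1,000/well, DMEM + 10% FBS) were exposed to 3-fold serial dilutions of compound for 72 hrs at 37° C, 5% CO2. Viable cells were read by Cell Titer Glo luminescence, in duplicate, and EC50 values were derived from the curves.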

PI3 K Alpha = PI3 K Alpha (Homo sapiens, UniProt P42336); test: PI3 kinase phosphorylation assays (homogenous solution phase, one step solid phase, ATP depletion/KinaseGlo); format: biochemical
Chain of PI3 K Alpha (P42336 whole entry): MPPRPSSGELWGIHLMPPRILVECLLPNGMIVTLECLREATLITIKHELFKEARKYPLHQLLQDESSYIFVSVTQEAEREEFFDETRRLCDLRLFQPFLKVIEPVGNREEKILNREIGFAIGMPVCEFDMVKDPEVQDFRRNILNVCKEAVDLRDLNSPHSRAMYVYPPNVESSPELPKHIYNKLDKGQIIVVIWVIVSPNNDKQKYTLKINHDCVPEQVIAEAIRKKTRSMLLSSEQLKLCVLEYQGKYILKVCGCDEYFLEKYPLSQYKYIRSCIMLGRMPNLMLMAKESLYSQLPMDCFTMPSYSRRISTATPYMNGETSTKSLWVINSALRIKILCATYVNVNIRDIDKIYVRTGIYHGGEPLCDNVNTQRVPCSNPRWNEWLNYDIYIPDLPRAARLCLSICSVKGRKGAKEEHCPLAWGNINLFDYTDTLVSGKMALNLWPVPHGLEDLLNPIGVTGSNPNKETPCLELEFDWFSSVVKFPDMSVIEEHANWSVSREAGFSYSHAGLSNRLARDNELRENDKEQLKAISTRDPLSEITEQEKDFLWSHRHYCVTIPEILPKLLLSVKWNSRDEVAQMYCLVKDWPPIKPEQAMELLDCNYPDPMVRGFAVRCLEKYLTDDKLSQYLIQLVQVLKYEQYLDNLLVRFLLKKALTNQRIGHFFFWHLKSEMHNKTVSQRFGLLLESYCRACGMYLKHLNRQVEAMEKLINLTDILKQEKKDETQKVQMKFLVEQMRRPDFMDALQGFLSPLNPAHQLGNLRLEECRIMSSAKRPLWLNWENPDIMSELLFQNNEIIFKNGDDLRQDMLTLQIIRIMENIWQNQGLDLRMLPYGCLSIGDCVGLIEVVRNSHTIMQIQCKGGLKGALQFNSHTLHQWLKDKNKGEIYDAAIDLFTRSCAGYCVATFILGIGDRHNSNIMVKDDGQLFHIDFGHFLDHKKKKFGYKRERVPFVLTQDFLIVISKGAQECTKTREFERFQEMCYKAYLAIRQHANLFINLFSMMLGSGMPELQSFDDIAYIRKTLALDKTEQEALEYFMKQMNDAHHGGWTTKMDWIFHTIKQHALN
Chain of PI3 K Alpha (P27986 whole entry partner): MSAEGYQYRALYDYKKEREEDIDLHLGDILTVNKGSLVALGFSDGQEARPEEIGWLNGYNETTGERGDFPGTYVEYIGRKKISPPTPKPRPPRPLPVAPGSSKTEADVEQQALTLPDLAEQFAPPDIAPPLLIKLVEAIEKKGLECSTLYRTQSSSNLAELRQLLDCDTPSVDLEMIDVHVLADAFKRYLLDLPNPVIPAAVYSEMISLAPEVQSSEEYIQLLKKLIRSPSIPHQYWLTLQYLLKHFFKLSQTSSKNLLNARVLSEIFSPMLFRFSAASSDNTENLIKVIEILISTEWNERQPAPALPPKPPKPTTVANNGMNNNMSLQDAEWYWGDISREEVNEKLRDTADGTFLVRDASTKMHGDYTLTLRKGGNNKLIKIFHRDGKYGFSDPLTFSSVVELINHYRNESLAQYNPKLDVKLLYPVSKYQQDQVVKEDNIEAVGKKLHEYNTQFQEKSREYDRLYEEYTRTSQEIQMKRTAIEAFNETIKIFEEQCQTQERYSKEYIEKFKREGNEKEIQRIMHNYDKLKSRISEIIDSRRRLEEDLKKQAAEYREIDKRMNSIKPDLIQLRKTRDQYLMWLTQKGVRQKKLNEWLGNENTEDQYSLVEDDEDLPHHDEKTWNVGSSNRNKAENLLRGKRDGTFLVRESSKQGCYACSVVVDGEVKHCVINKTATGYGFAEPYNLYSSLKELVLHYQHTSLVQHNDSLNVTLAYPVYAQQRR

T4 sequence (P48736 38-1102): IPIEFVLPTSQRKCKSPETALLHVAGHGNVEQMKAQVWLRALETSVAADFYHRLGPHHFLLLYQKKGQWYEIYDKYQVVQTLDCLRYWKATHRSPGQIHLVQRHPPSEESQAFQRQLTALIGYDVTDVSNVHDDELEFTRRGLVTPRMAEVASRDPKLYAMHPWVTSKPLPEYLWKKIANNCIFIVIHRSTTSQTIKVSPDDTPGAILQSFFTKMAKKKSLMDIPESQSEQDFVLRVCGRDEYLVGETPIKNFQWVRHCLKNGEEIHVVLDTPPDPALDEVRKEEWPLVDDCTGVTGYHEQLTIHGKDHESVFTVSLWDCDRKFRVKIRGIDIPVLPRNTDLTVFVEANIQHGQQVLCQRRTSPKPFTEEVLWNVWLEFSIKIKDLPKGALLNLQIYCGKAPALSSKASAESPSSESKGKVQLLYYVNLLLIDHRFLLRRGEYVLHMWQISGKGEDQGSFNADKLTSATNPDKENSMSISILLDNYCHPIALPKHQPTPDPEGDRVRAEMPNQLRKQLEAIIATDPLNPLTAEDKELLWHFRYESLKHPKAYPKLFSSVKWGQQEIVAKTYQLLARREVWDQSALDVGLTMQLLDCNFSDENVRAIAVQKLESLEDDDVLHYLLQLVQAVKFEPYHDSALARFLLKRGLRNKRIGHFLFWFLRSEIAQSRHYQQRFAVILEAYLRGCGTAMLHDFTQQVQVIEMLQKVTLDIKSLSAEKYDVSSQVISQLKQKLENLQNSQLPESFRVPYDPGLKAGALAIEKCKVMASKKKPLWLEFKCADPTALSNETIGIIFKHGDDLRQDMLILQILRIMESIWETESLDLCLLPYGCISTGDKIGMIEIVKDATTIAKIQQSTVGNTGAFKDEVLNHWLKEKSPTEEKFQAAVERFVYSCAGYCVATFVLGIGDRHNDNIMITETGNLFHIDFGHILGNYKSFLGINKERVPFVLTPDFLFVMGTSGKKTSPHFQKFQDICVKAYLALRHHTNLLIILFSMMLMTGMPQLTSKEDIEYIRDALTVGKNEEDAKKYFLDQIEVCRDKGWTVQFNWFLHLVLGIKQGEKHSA
T3 sequence (P42336 whole entry, canonical isoform): as the sequence (P42336 whole entry) above
T1 sequence (P42338 whole entry, canonical isoform): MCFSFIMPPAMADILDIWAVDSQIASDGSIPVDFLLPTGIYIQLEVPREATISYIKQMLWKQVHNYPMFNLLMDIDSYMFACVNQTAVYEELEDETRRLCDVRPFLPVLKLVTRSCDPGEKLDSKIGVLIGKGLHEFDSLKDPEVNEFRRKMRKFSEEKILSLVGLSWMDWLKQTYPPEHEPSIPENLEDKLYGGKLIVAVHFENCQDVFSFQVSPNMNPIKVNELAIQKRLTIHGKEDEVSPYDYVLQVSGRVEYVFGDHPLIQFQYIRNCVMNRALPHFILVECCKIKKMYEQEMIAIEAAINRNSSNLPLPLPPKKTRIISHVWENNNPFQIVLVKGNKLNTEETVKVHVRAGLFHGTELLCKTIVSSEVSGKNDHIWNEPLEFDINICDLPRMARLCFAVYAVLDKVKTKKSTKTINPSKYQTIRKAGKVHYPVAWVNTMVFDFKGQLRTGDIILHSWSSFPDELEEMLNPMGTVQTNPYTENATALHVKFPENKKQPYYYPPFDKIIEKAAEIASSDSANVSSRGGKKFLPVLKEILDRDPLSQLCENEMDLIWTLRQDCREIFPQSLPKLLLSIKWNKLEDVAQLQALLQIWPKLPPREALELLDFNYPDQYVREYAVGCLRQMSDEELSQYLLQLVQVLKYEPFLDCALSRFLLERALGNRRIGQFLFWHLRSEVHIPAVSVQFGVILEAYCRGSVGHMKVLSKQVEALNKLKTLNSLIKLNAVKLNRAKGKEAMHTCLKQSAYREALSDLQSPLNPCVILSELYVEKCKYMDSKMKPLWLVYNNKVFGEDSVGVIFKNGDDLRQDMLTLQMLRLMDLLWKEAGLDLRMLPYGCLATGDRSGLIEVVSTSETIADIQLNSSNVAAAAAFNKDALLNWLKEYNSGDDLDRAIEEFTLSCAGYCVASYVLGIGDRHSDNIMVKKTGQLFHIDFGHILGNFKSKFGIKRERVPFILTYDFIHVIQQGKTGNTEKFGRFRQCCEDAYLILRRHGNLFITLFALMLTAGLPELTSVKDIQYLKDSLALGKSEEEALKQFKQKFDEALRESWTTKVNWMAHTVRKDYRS

Row | Ki (PI3 kinase isoform beta) [nM] | Ki (PI3 kinase isoform delta) [nM] | Ki (PI3 kinase isoform alpha) [nM] | Ki (human PI3Kγ (GST-p110γ)) [nM] | EC50 ([2]; read-out: A2780 pAKT 473 EC50) [nM] | EC50 (A2780 cells) [nM] | IC50 (PI3 K Alpha; read-out: PI3K Alpha IC50) [nM] | Compound | further results
1 | < 1000 | < 1000 | < 10000 | < 1000 |  |  |  | CC(C)n1nnc(CCNC(=O)Nc2cn3cc(-c4ccc(N)nc4)ccc3n2)n1 [Example 3-3, 1-[6-(6-Amino-pyridin-3-yl)-imidazo[1,2-a]pyridin-2-yl]-3-[2-(2-isopropyl-2H-tetrazol-5-yl)-ethyl]-urea] | 
2 | < 1000 | < 1000 | < 1000 | < 1000 |  |  |  | CC(C)n1nnc(CCNC(=O)Nc2cn3cc(-c4cnc(N)c(C(F)(F)F)c4)ccc3n2)n1 [Example 3-2, 1-[6-(6-Amino-5-trifluoromethyl-py-ridin-3-yl)-imidazo[1,2-a]pyridin-2-yl]-3-[2-(2-isopropyl-2H-tetrazol-5-yl)-ethyl]-urea] | 
3 | < 1000 | < 1000 | < 1000 | < 1000 |  |  |  | Nc1ncc(-c2ccc3nc(NC(=O)NCCn4nnc(C5CC5)n4)cn3c2)cc1C(F)(F)F [Example 3-5, 1-[6-(6-Amino-5-trifluoromethyl-py-ridin-3-yl)-imidazo[1,2-a]pyridin-2-yl]-3-[2-(5-cyclopropyl-tetrazol-2-yl)-ethyl]-urea] | 
4 | < 1000 | < 1000 | < 1000 | < 1000 |  |  |  | CCn1nnc(CCNC(=O)Nc2cn3cc(-c4cnc(N)c(C(F)(F)F)c4)ccc3n2)n1 [Example 3-1, 1-[6-(6-Amino-5-trifluoromethyl-pyridin-3-yl)-imidazo[1,2-a]pyridin-2-yl]-3-[2-(2-ethyl-2H-tetrazol-5-yl)-ethyl]-urea] | 
5 | < 1000 | < 1000 | < 1000 | < 1000 |  |  |  | CCc1nnn(CCNC(=O)Nc2cn3cc(-c4cnc(N)c(C(F)(F)F)c4)ccc3n2)n1 [Example 3-4, 1-[6-(6-Amino-5-trifluoromethyl-py-ridin-3-yl)-imidazo[1,2-a]pyridin-2-yl]-3-[2-(5-ethyl-tetrazol-2-yl)-ethyl]-urea] | 

Continued, molecule first:

Row | Compound | Ki (PI3 kinase isoform beta) [nM] | Ki (PI3 kinase isoform delta) [nM] | Ki (PI3 kinase isoform alpha) [nM] | Ki (human PI3Kγ (GST-p110γ)) [nM] | EC50 ([2]; read-out: A2780 pAKT 473 EC50) [nM] | EC50 (A2780 cells) [nM] | IC50 (PI3 K Alpha; read-out: PI3K Alpha IC50) [nM] | further results
6 | CC(=O)Nc1cn2cc(-c3cnc(N)c(OC(C)C(F)(F)F)n3)ccc2n1 (stereo not shown) [Example 57, N-(6-(5-amino-6-(1,1,1-trifluoropropan-2-yloxy)pyrazin-2-yl)imidazo[1,2-a]pyridin-2-yl)acetamide] |  |  |  |  | < 1000 |  |  | tumor growth inhibition [1]: 79%
7 | Nc1ncc(-c2ccc3nc(NC(=O)c4ccc(F)cc4)cn3c2)cc1C(F)(F)F [Example 78, N-(6-(6-amino-5-(trifluoromethyl)pyridin-3-yl)imidazo[1,2-a]pyridin-2-yl)-4-fluorobenzamide] |  |  |  |  | < 1000 | < 1000 | < 1000 | 
8 | CC(=O)Nc1cn2cc(-c3cnc(N)c(/C=N/N(C)C)c3)ccc2n1 [Example 204, (E)-N-(6-(6-amino-5-((2,2-dimethylhy-drazono)methyl)pyridin-3-yl)imidazo[1,2-a]pyridin-2-yl)acetamide] |  |  |  |  | < 1000 | < 10000 | < 1000 | 
9 | CC(=O)Nc1nc2ccc(-c3cnc(N)c(OCC(F)(F)F)n3)cc2s1 [Example 2-37, N-(6-(5-amino-6-(2,2,2-trifluoroethoxy)pyrazin-2-yl)benzo[d]thiazol-2-yl)acetamide] |  |  |  |  |  |  |  | EC50 (A2780 cells; 72 hrs): < 1000 nM; EC50 ([2]; 1 h, one hour incubation, read-out: A2780 pAKT473 EC50): < 1000 nM; IC50 (PI3 K Alpha; ATP depletion assay, read-out: PI3 K Alpha IC50): < 1000 nM
10 | CC(=O)Nc1cn2cc(-c3cnc(N)c(-c4ccccc4N4CCOCC4)c3)ccc2n1 [Example 105, N-(6-(6-amino-5-(2-morpholino-phenyl)pyridin-3-yl)imidazo[1,2-a]pyridin-2-yl)acetamide] |  |  |  |  | < 1000 | < 1000 | < 1000 | 
11 | CC(=O)Nc1cn2cc(-c3cnc(N)c(Oc4cccnc4)n3)ccc2n1 [Example 91, N-(6-(5-amino-6-(pyridin-3-yloxy)pyrazin-2-yl)imidazo[1,2-a]pyridin-2-yl)acetamide] |  |  |  |  | < 1000 | < 1000 | < 1000 | 
12 | CC(=O)Nc1cn2nc(-c3cnc(N)c(-c4ccccc4C(F)(F)F)c3)ccc2n1 [Example 53, N-(6-(6-amino-5-(2-(trifluoromethyl)phenyl)pyridin-3-yl)imidazo[1,2-b]pyridazin-2-yl)acetamide] |  |  |  |  | < 1000 | < 1000 | < 1000 | 
